Data reported in patent publication US8466111B2, “Cyclopenta{G}quinazoline derivatives for the treatment of rheumatoid arthritis or acute myeloid leukaemia” (BTG International Limited, priority 2008, dated 2013).
Where two headings read alike, the source gives them in different places.

Columns and labels:
[1] = tested on: human monocytic-macrophage THP1 cells; assay: Cell proliferation inhibition, THP1 cells; type: cell-based; settings: read-out: Growth inhibitory effects, IC50
Description: In other experiments human monocytic-macrophage THP1 cells were tested for antiproliferative effects of folate antagonists. To this end, 1 ml of cell suspension containing 1.25×10^5 cells were plated in individual wells of a 24-well tissue culture plate and incubated with 8 concentrations (with 2.5-fold increments) of folate antagonist drugs. After 72 hours drug exposure cell counts were performed with a haemocytometer and viability was checked by trypan blue exclusion.

[2] = target: T1, FR-β (Homo sapiens, UniProt P14207); assay: Intact cell competitive binding of [3H]-folic acid to FR-β (CHO-β cells); settings: for FR-β binding affinity relative to folic acid: [3H]-folic acid displacement, 10 min at 4° C.
T1 construct: expressed in transfected cells; host or cells: Chinese Hamster Ovary cells (CHO-β / CHO-FR-β)
Description: (§1) An intact cell binding assay for competitive binding of [^3H]-folic acid and novel anti-folate drugs to FR-β and FR-α was performed essentially as described previously. See Mol. Pharmacol. 1995; 48: […] and Cancer Res. 1995; 55(17): 3795-3802 (both Westerhof et al.). Briefly, CHO-β cells (FR-β transfected Chinese Hamster Ovary cells) and KB cells (FR-α expressing cells) were detached by incubation in PBS+1 mM EDTA. Detached cells were suspended in ice-cold HEPES-buffered saline (140 mM NaCl, 20 mM HEPES, 6 mM KCl, 2 mM MgCl2, 6 mM D-glucose, pH 7.4 with NaOH) to a cell concentration of 3×10^6 and 1×10^6 cells/ml, respectively. One ml of cell suspension was added to a series of Eppendorf tubes containing […] [^3H]-folic acid (specific radioactivity: 2,000 dpm/μmol) in the absence or presence of increasing concentrations of natural folate or folate antagonists. Following 10 minutes at 4° C., cells were centrifuged in an Eppendorf centrifuge (30 s, 10,000 rpm), the supernatant was aspirated and cell pellets were resuspended in 200 μl water and analysed for radioactivity (Optima Gold scintillation fluid, United Technologies, Packard, Brussels, Belgium). Non-specific binding of [^3H] […] For comparison, data for affinities of the RFC for natural folates and folate antagonists were presented from previous studies. See. Mol Pharmacol 1995; 48: 459-471 Westerhof et al.) and Cancer Res. 2005; 65(24): 11721-11728 (Gibbs et al.).

[3] = target: T2, FR-α (Homo sapiens, UniProt P15328); assay: Intact cell competitive binding of [3H]-folic acid to FR-α (KB cells); settings: FRα (KB) versus FR-β (CHO-β)
T2 construct: KB cells (FR-α expressing cells); host or cells: KB cells
Description: as §1, with “Mol Pharmacol 1995; 48: 459-471 Westerhof et al.) and Cancer Res. 2005; 65(24): 11721-11728 (Gibbs et al.).” left out

[4] = tested on: CHO/FR-β cells; assay: Cell proliferation inhibition, CHO-FR-β cells; type: cell-based, Chinese Hamster; settings: for Effect of addition of folic acid on growth inhibitory activity: 1 μM folic acid to block FR
Description: (§2) Cell proliferation inhibition assay CHO-WT and CHO-FRβ cells were seeded in individual wells of a 24-well tissue culture plate at a density of 1×10^4/cm^2. […] After 72 hours incubation, cells were harvested by trypsinization and counted for cell viability as described before. See Mol. Pharmacol. 1999; 55(4): 761-769 (Jansen et al.).

[5] = tested on: CHO/WT cells; assay: Cell proliferation inhibition, CHO-WT cells; type: cell-based, Chinese Hamster; settings: 72 hours
Description: as §2

[6] = target: T3, RFC (reduced folate carrier) (Homo sapiens, UniProt P41440); settings: cited from earlier work
T3 sequence (P41440 1-591): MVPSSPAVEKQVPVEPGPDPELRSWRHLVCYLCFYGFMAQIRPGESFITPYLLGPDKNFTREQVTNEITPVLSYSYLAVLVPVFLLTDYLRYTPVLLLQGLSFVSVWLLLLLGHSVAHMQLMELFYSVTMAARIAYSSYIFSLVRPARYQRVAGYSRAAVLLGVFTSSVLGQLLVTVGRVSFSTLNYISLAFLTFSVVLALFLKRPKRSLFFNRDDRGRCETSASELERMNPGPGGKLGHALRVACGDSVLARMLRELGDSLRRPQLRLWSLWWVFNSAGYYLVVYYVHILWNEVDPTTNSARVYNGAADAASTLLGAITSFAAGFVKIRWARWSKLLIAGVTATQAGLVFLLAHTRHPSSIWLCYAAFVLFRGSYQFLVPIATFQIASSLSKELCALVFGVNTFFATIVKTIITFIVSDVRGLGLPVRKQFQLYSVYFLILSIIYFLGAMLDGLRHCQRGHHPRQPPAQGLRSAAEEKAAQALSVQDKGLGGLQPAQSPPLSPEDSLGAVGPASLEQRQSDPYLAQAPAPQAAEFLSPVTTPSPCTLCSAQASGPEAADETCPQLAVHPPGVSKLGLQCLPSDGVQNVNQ

[7] = tested on: macrophages (3A5) in synovial sublining layer; assay: Synovial tissue immunohistochemistry of RA patients treated with MTX; type: in vivo, human; settings: after 4 months of MTX, 219 before treatment, p=0.14
Description: In this study we analysed synovial tissue biopsies derived from the knee joints of 15 RA-patients with active disease before treatment and after 4 months of treatment with MTX (starting dose of MTX: 7.5 mg/week; increasing stepwise to 15 mg/week over 12 weeks). Active disease was defined as ≧6 swollen or tender joints and levels of moderate or worse on the physician's and patient's assessments of disease activity (Disease Activity Score-28; DAS-28). All patients had at least 1 clinically involved knee joint. Low dose prednisone (<10 mg/day) and concomitant stable doses of nonsteroidal anti-inflammatory drug (NSAID) treatment were allowed. None of the patients ever used MTX before enrolling the study. In patients taking other DMARDs, the treatment was terminated following a washout phase of 28 days. […]
Immunohistochemical staining of cryostat sections (4 μm) of synovial tissue biopsies from RA patients and controls was performed using a 3-step immunoperoxidase method as described previously. […] Stained sections were analysed for FR-β, 3A5 and CD3 expression by digital image analysis, as described previously. […] Positive cells were evaluated by analysing 18 consecutive hpfs, scoring numbers of positive cells in the intimal lining layer and the synovial sublining per mm^2.

T1 sequence (P14207 17-230): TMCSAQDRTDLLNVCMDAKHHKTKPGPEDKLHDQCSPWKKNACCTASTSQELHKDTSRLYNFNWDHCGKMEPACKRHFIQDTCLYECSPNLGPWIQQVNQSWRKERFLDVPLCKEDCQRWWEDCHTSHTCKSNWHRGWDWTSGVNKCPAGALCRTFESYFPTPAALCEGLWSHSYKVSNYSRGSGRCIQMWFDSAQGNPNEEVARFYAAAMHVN
T2 sequence (P15328 25-234): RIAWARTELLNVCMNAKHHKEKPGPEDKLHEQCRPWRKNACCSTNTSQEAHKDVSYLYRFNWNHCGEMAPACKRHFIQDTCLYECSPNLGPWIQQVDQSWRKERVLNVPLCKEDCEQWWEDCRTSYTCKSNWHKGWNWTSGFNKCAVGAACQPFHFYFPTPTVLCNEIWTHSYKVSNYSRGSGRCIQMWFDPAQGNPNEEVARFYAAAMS

FR-β binding affinity [2]	IC50 ([1]; Homo sapiens, THP-1, 72 h) [nM]	Molecule	FR-β binding affinity relative to folic acid [2]	other results
		Pemetrexed		IC50 ([1]; RPMI-1640 with 2.2 μM folic acid, 72 hours drug exposure, mean ± S.D. of 3 experiments): 10.7 ± 2.2 nM
relatively high binding affinity	1.6 ± 0.1	Cc1nc2ccc3ccc(CNc4ccc5c(c4)CN([C@@H](CCC(=O)O)C(=O)O)C5=O)cc3c2c(=O)[nH]1 [GW1843]		
		C#CCN(c1ccc(C(=O)N[C@@H](CCC(=O)N[C@H](CCC(=O)O)C(=O)O)C(=O)O)cc1)[C@H]1CCc2cc3nc(CO)[nH]c(=O)c3cc21 [(6S)-BGC 945]	46 % of folic acid	
moderate to high binding affinities	3.2 ± 0.2	Nc1nc2c(c(=O)[nH]1)SC(CCc1ccc(C(=O)N[C@@H](CCC(=O)O)C(=O)O)s1)CN2 (stereo partly shown) [AG2034]	54 % of folic acid	FRα binding affinity, fold higher than FR-β [3]: 2.5 fold; Abrogation of growth inhibitory effects by FR-β blocking (folic acid) and RFC blocking (LV) ([4]; folic acid 1 μM or leucovorin 20 nM, CHO/WT and CHO/FR-β): only partial; Growth inhibition of CHO/WT cells [5]: displayed a growth inhibitory potential
relatively high binding affinity	4850 ± 285	C#CN(Cc1cc2c(=O)[nH]c(N)nc2cc1C)c1ccc(C(=O)N[C@@H](CCC(=O)CN[C@H](CCCC(=O)O)C(=O)O)C(=O)O)c(F)c1 [CB300635]	161 % of folic acid	Effect of addition of folic acid on growth inhibitory activity [4]: abrogated activity; Growth inhibition of CHO/FR-β cells ([4]; 72 hours): not markedly potent; Affinity for RFC [6]: poor affinity for RFC
affinity comparable to MTX	1 ± 0.4	Cc1c(CNc2ccc(C(=O)N[C@@H](CCCNC(=O)c3ccccc3C(=O)O)C(=O)O)cc2)cnc2nc(N)nc(N)c12 [PT644]		
	2.4 ± 0.5	Cc1nc2ccc(CN(C)c3ccc(C(=O)N[C@@H](CCC(=O)O)C(=O)O)s3)cc2c(=O)[nH]1 [Raltitrexed]		
	7.1 ± 0.5	CN(Cc1cnc2nc(N)nc(N)c2n1)c1ccc(C(=O)N[C@@H](CCC(=O)O)C(=O)O)cc1 [MTX, methotrexate]		FR-β binding affinity, fold lower than for folic acid [2]: approximately 50 fold; Median numbers of macrophages after MTX treatment [7]: 119 positive cell counts in the synovial sublining layer/mm^2

Molecule	FR-β binding affinity [2]	IC50 ([1]; Homo sapiens, THP-1, 72 h) [nM]	FR-β binding affinity relative to folic acid [2]	other results
Nc1nc2c(c(=O)[nH]1)CC(CCc1ccc(C(=O)N[C@@H](CCC(=O)O)C(=O)O)cc1)CN2 (stereo partly shown) [DDATHF, 5,10-dideazatetrahydrofolate]	moderate to high binding affinities	9.8 ± 0.8	27 % of folic acid	FRα binding affinity, fold higher than FR-β [3]: 2.5 fold
Nc1nc(N)c2nc(CNc3ccc(C(=O)N[C@@H](CCCNC(=O)c4ccccc4C(=O)O)C(=O)O)cc3)cnc2n1 [PT523]		2.2 ± 0.3	0.3 % of folic acid	
C#CCN(Cc1cc2c(=O)[nH]c(C)nc2cc1C)c1ccc(C(=O)N[C@@H](CCc2nn[nH]n2)C(=O)O)c(F)c1 [BGC 9331]		8.7 ± 0.8		
C#CCN(c1ccc(C(=O)N[C@@H](CCC(=O)N[C@H](CCC(=O)O)C(=O)O)C(=O)O)cc1)C1CCc2cc3nc(CO)[nH]c(=O)c3cc21 (mixture of isomers) [BGC 945]	relatively high binding affinity	3630 ± 350	89 % of folic acid	Effect of addition of folic acid on growth inhibitory activity [4]: completely abrogated; Concentration inducing growth inhibition of CHO/FR-β cells ([4]; 72 hours): 10 to 50 nM; Differential in activity between control CHO cells and FR-β transfected cells ([4]; CHO/WT versus CHO/FR-β): largest differential in activity; Extracellular concentration inducing growth inhibition of CHO/WT cells [5]: > 1000 nM; Affinity for RFC [6]: poor affinity for RFC
